Where two headings read alike, the source gives them in different places.
Experiments:
A172 = experiment: MTT assay, A172; type: cell-based; conditions: Homo sapiens, A172, 24 h of incubation
Protocol: (§1) Human glioblastoma cell lines (A172 CRL-1620™, U-87 MG HTB-14™, U-118 MG HTB-15™, T98G CRL-1690™) and the mouse astrocyte cell line (C8-D1A CRL-2541™) were obtained from the American Type Culture Collection (ATCC, Manassas, VA, USA). The cell lines were cultured in complete medium: DMEM (Corning, Kennebunk, ME, USA) for C8-D1A and T98G, and EMEM (ATCC, Manassas, VA, USA) for A172, U-87 MG, U118MG. The media were supplemented with 10% foetal bovine serum (Eurx, Gdansk, Poland) and 1% penicillin-streptomycin solution (Corning, Kennebunk, ME, USA). Cells were cultured in cell culture flasks (Sarstedt, Numbrecht, Germany) at 37 °C in 5% CO2. For experiments, cells were washed with phosphate-buffered saline without calcium and magnesium (Corning, Kennebunk, ME, USA) and treated with 0.05% trypsin and 0.02% EDTA (Corning, Kennebunk, ME, USA). Cells were counted using a Sceptre 3.0 cell counter (Merck Millipore, Burlington, MA, USA) prior to seeding into plates. For 6-well plates, 5 x 10^5 cells/mL were seeded, while for 96-well plates (Sarstedt, Numbrecht, Germany), 1 x 10^5 cells/mL were seeded in 100 μL of the medium.
(§2) The cell lines were seeded in 96-well plates and cultured according to the methodology described in the previous section. Cells were then treated with the novel derivatives MM118 and MM119 and the reference compound temozolomide (TMZ) (Sigma-Aldrich, St. Louis, MO, USA) at concentrations of 0.1, 0.25, 0.5, 1.0, 2.5, 5.0, and 10.0 μM for 24 h. The MTT assay was performed using a solution of 3–(4,5-dimethyl-2-thiazolyl)-2,5-diphenyl-2H-tetrazolium bromide (Sigma-Aldrich, St. Louis, MO, USA) at a concentration of 5 mg/mL in phosphate-buffered saline without calcium and magnesium (Corning, Kennebunk, ME, USA). After 24 h incubation with test compounds, 10 μL MTT solution was added to each well, and cells were incubated for another 2 h at 37 °C. The cells were then lysed in 100 μL lysis buffer (25 mM HCl, 2% acetic acid, 3% DMF, and 5% SDS, adjusted to pH 4.7). Absorbance was measured at 570 nm using an Absorbance 96 microplate reader (Byonoy GmbH, Hamburg, Germany).

U-87 MG = experiment: MTT assay, U-87 MG; type: cell-based; conditions: Homo sapiens, 24 h of incubation
Protocol: as §1, §2

U-118 MG = experiment: MTT assay, U-118 MG; type: cell-based; conditions: Homo sapiens, 24 h of incubation, read-out: IC50 values ± SEM, MTT assay
Protocol: as §1, §2

T98G = experiment: MTT assay, T98G; type: cell-based; conditions: Homo sapiens, 24 h of incubation
Protocol: as §1, §2

C8-D1A = experiment: MTT assay, C8-D1A astrocytes; type: cell-based; conditions: C8-D1A mouse astrocytes, 24 h of incubation
Protocol: as §1, §2

DNA = tested on: DNA; parameters: method as in PMID 36835469; conditions: comet assays; cited from earlier work
[1] = A 172, read-out: IC50 values ± SEM, MTT assay
[2] = read-out: IC50 values ± SEM, MTT assay
[3] = 24 h, heading: IC50 values ± SEM, MTT assay

| IC50 (U-87 MG; [2]) | IC50 (U-87 MG; [3]) | SMILES | IC50 (A172; [1]) | IC50 (U-118 MG) | IC50 (T98G; [2]) | IC50 (C8-D1A; [2]) | IC50 (A172; A 172, 24 h, heading: IC50 values ± SEM, MTT assay) | IC50 (T98G; [3]) | IC50 (C8-D1A; [3]) | DNA damage (single-strand and double-strand breaks) (DNA) |
| --- | --- | --- | --- | --- | --- | --- | --- | --- | --- | --- |
| > 10 µM | – | Cc1nn(-c2ccc(S(=O)(=O)N[C@@H](CO)CC(C)C)cc2)c2nn3nnnc3nc12 [MM124] | > 10 µM | > 10 µM | > 10 µM | > 10 µM | – | – | – | – |
| > 10 µM | – | Cc1nn(-c2ccc(S(=O)(=O)NC[C@H](O)CO)cc2)c2nn3nnnc3nc12 [MM126] | > 10 µM | > 10 µM | > 10 µM | > 10 µM | – | – | – | – |
| > 10 µM | – | Cc1nn(-c2ccc(S(=O)(=O)NC[C@@H](O)CO)cc2)c2nn3nnnc3nc12 [MM127] | > 10 µM | > 10 µM | > 10 µM | > 10 µM | – | – | – | – |
| – | – | COC(=O)C1CCCN1S(=O)(=O)c1ccc(-n2nc(C)c3nc4nnnn4nc32)cc1 (stereo not shown) [MM128, Methyl 1-[4–(7-methyl-5H-pyrazolo[4,3-e]tetrazolo[1,5-b][1]^,[2]^,[4]triazin-5-yl)phenylsulfonyl]-pyrrolidine-2-carboxylate] | – | 563 µM | – | – | 1.65 µM | 1.53 µM | – | – |
| – | 2.35 µM | COC(=O)C1CC(O)CN1S(=O)(=O)c1ccc(-n2nc(C)c3nc4nnnn4nc32)cc1 (stereo not shown) [MM129, Methyl (Z)-4-hydroxy-1-[4–(7-methyl-5H-pyrazolo[4,3-e]tetrazolo[1,5-b][1]^,[2]^,[4]triazin-5-yl)phenyl-sulfonyl]pyrrolidine-2-carboxylate] | – | – | – | – | – | – | 2.86 µM | induce DNA damage |
| – | – | Cc1nn(-c2ccc(S(=O)(=O)N[C@H](C)CO)cc2)c2nn3nnnc3nc12 [MM131] | – | – | – | – | – | – | – | induce DNA damage |
